This data set has as its system blood capillaries of chorioallantoic membrane of hen's fertilized egg. The data set can be described thus: HET-CAM test (hen's egg test on chorioallantoic membrane, Invittox protocol 47). As to conditions: for Irritancy Score by HET-CAM: Table 2, individual surfactants. More on the design: species or system White Leghorn chicken. The source says:
The HET-CAM (Hen's egg test on chorioallantoic membrane, as per Invittox Protocol 47) method. The hen's egg test on Chorioallantoic Membrane (HET-CAM) is an alternative in-vitro method developed by Luepke et al. to substitute Draize test that was done on rabbits. (Luepke N. Hen's egg chorioallantoic membrane test for irritation potential. Food Chem Toxicol. 1985; 23(2):287-291). It is subsequently modified by […] et al. ([…] Test. The […]. Databank of in-vitro techniques. […] Subsequently, the methodology is successfully adopted to personal care by […] et al. ([…], Bracher M, Courtellemont P, de Silva O. The HET-CAM, a useful in vitro assay for assessing the eye irritation properties of cosmetic formulations and ingredients. Toxicol. […] The egg's shell is opened at the side of the air chamber, and the egg white membrane is removed while avoiding any damage to the fine blood vessels. […] Based on Irritation score the damaging potential is classified into four categories as described in the table 1 below. White Leghorn chicken eggs (up to 9 days of incubation) are candled to ensure that all are viable. Egg shell is marked using a rotating dentist-sawblade and the section of the shell is removed. The membrane is carefully moistened with 0.9% NaCl solution and the eggs are replaced in incubator until ready for assaying. […] Onset of haemorrhage (Bleedings), vascular lysis (Blood vessel disintegration), coagulation (protein denaturation intra and extra vascular) is monitored. The onset of the biological endpoints is recorded in number of seconds and the irritancy scores are calculated as per formula prescribed in the protocol document. The irritancy score is broadly divided into four different categories of damaging potential as described in Table 1.

For the molecule `CCCCCCCCCCCCOS(=O)(=O)[O-].[Na+]` [Sodium lauryl sulphate], the “Irritancy score (IS) by HET-CAM” value was “around 16”. For the setting “1% test solution”, the “Irritancy Score by HET-CAM” value came to 16.7. In addition, where the note is “Table 3b”, the “C, calculated coagulation part of IS” value is given as 5.0; the “H, calculated haemorrhage part of IS” value is recorded as 4.5; the “IS (irritation score)” value turned out to be 15.1; the “L, calculated lysis part of IS” value was 5.6. Further, where the note is “Table 3b, 1% test solution”, the “C, time for appearance of coagulation” value is 134 s; the “H, time for appearance of haemorrhage” value turned out to be 31 s; the “L, time for appearance of lysis” value was 63 s. Moreover, where the note is “Table 6a”, the “C, time for appearance of coagulation” value came out at 134 s; the “Calculation C” value is listed as 5.0; the “Calculation H” value was 4.5; the “Calculation L” value was 5.6. Where the note is “Table 6a”, the “H, time for appearance of haemorrhage” value amounted to 31 s; the “IS (irritation score)” value is recorded as 15.1; the “L, time for appearance of lysis” value is 63 s. Where the note is “Table 12”, the “C, calculated coagulation part of score” value is on record as 5.0; the “C, time for appearance of coagulation” value amounted to 134 s; the “H, calculated haemorrhage part of score” value is 4.5; the “H, time for appearance of haemorrhage” value was 31 s. For the setting “Table 12”, the Irritancy score was determined as 15.1; the “L, calculated lysis part of score” value is 5.6; the “L, time for appearance of lysis” value was found to be 63 s.
In the case of Caprylyl/capryl glucoside, the “Irritancy Score by HET-CAM” value (1% test solution) is on record as 8.
Same read-out and setting: the value for Cocamido propyl sulphobetaine was 10; that for “Cocamidopropyl PG dimonium chloride phosphate” was 7.5.
Same read-out and setting: the value for Cocomido propyl betaine was 10.8; that for “Lauramido propyl PG dimonium chloride phosphate” was 8.0.
For Lauryl glucoside, the “Irritancy Score by HET-CAM” value (1% test solution) stood at 6.5.

Values taken from patent US12673017B2, “Ultra-mild, concentrated and self-preserving cleansing compositions for personal care” (GALAXY SURFACTANTS LTD, priority 2022, dated 2026).
